Several values for one entry are separate records, joined by “and”; a condition that tells them apart may be missing. Equal values may be shown once.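 48-hour exposure; five concentrations; linearly interpolated endpoints. The concentration for 50% growth inhibition is given as GI50. The concentration for full growth arrest is given as TGI.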
Tests used:
Test in all cases: inhibition of tumour cell growth, NCI panel, 48 h
A549 NSCLC = system: A549 NSCLC
ACHN renal = system: ACHN renal
BT-549 breast = system: BT-549 breast
COLO 205 colon = system: COLO 205 colon
HCT-116 colon = system: HCT-116 colon
MDA-MB-231 breast = system: MDA-MB-231 breast
NCI-H460 lung = system: NCI-H460 lung
SK-MEL-28 melanoma = system: SK-MEL-28 melanoma
SNB-75 CNS = system: SNB-75 CNS
SR leukemia = system: SR leukemia

Row | SMILES | GI50 (A549 NSCLC) | TGI (A549 NSCLC) | GI50 (ACHN renal) | TGI (ACHN renal) | GI50 (BT-549 breast) | TGI (BT-549 breast) | GI50 (COLO 205 colon) | TGI (COLO 205 colon) | GI50 (HCT-116 colon) | TGI (HCT-116 colon) | GI50 (MDA-MB-231 breast) | TGI (MDA-MB-231 breast) | GI50 (NCI-H460 lung) | TGI (NCI-H460 lung) | GI50 (SK-MEL-28 melanoma) | TGI (SK-MEL-28 melanoma) | GI50 (SNB-75 CNS) | TGI (SNB-75 CNS) | GI50 (SR leukemia) | TGI (SR leukemia)
1 | Cn1cnc([N+](=O)[O-])c1S(=O)(=O)Oc1cccc2ccccc12 | 17.5 µM | 52.4 µM | 1.97 µM | 4.21 µM | 14.4 µM | 30.7 µM | 1.06 µM | 2.64 µM | 2.1 µM | 5.11 µM | 4.46 µM | 14 µM | 14.7 µM | 36 µM | 4.68 µM | 14.5 µM | 9.55 µM | 32.3 µM | 1.74 µM | 4.57 µM
2 | CN(C)CCSC1=Nc2ccc(Cl)cc2C(c2ccccc2Cl)=NC1 | 13.8 µM and 88.8 µM | 31.7 µM and > 100 µM | 14 µM and > 100 µM | 26.9 µM and > 100 µM | – | > 100 µM | 14 µM and 74.2 µM | 27.3 µM and > 100 µM | 13.8 µM and 58.4 µM | 31.1 µM and > 100 µM | 10.7 µM and > 100 µM | 22.8 µM and > 100 µM | 14.9 µM and 68.1 µM | 30.7 µM and > 100 µM | 19.4 µM and > 100 µM | 34.1 µM and > 100 µM | – | 33.1 µM and > 100 µM | 6.68 µM and 42 µM | > 100 µM
3 | NC1(C(=O)OCc2ccccc2)CCCC1 | – | > 100 µM | – | 34.1 µM | – | 33.8 µM | – | 76.7 µM | – | 41.8 µM | – | 36.4 µM | – | > 100 µM | – | 48.7 µM | – | 35.1 µM | – | > 100 µM
4 | O=C(CCc1nnc2sc(-c3ccc(Cl)cc3Cl)nn12)c1nc2ncccc2[nH]1 | 2.78 µM | 10.4 µM | 1.54 µM | 2.91 µM | 1.98 µM | 4.36 µM | 1.93 µM | 4.2 µM | 1.3 µM | 2.65 µM | 1.74 µM | 4.36 µM | 1.89 µM | 3.64 µM | 2.44 µM | 5.65 µM | 0.459 µM | 3.79 µM | 1.9 µM | > 100 µM
5 | COc1ccc(-c2nnc(COc3ccc(NC(=O)Nc4cc(C(F)(F)F)cc(C(F)(F)F)c4)cc3F)o2)cc1 | 1.58 µM | 7.15 µM | 2.54 µM | 10.1 µM | 2.54 µM | 6.05 µM | 1.9 µM | 3.3 µM | 1.63 µM | 3.98 µM | 1.99 µM | 4.54 µM | 1.66 µM | 4.38 µM | 2.4 µM | 6.85 µM | 2.02 µM | 6.37 µM | 2.19 µM | 5.95 µM
6 | OC(c1nc2ccccc2[nH]1)C(O)C(O)C(O)c1nc2ccccc2[nH]1 (stereo not drawn) | – | > 100 µM | – | > 100 µM | – | > 100 µM | – | > 100 µM | – | > 100 µM | – | > 100 µM | – | > 100 µM | – | > 100 µM | – | > 100 µM | – | > 100 µM
7 | CSc1nc(NC2OCC(OC(C)=O)C(OC(C)=O)C2OC(C)=O)c(N=CC=Nc2c(NC3OCC(OC(C)=O)C(OC(C)=O)C3OC(C)=O)nc(SC)[nH]c2=O)c(=O)[nH]1 (stereo not drawn) | – | > 100 µM | – | > 88.7 µM | – | > 100 µM | – | > 100 µM | – | > 100 µM | – | > 100 µM | – | > 100 µM | – | > 100 µM | – | 57.4 µM | – | > 100 µM
8 | COc1c(Cl)c(=O)oc2ccc(Cl)cc12 | – | > 100 µM | – | > 100 µM | – | > 100 µM | – | > 100 µM | – | > 100 µM | – | > 100 µM | – | > 100 µM | – | > 100 µM | – | > 100 µM | – | > 100 µM

From PubChem BioAssay (NCI)
